Bounds are passed on as bounds.

The target in this test is T1, p38a activated, mitogen-activated protein kinase-activated protein kinase 2 (MAPKAP-K2 or MK2) enzyme (Homo sapiens, UniProt P49137).
T1 construct: purchased Invitrogen PV3317
T1 sequence (P49137 whole entry): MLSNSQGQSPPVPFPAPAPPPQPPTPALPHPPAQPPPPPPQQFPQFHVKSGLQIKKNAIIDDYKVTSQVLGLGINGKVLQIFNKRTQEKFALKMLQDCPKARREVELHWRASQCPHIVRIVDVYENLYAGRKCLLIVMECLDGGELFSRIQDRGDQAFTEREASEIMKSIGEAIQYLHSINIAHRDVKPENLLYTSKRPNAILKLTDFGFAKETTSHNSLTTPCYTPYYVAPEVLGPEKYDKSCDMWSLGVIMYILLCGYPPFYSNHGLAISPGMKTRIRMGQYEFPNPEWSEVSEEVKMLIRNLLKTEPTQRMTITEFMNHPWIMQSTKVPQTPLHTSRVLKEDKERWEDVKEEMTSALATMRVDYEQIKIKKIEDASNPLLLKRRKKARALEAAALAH
The test can be described thus: MK2 OMNIA biochemical assay (AssayQuant continuous-read kinase assay). The settings on record: [MK-2]=0.05 nM, [ATP]=100 μM, [AQT0425]=10 μM. The source says: Example 56.2. Mitogen-Activated Protein Kinase-Activated Protein Kinase 2 AssayQuant Technologies® Assay for Compound Potency Assessment (MK2 OMNIA Biochemical Assay)
The protocol below describes a continuous-read kinase assay optimized to measure potency of compounds against p38a activated, mitogen-activated protein kinase-activated protein kinase 2 (MAPKAP-K2 or MK2) enzyme.
A 1.25× stock solution of MK2 (PV3317, from Invitrogen) and a 5× stock solution of ATP and Sox conjugated peptide substrate, AQT0425 (CSKS-AQT0425B, from AssayQuant Technologies), were prepared in 1× kinase reaction buffer consisting of 50 mM HEPES, pH 7.5, 0.01% Brij-35, 0.55 mM EGTA, 10 mM MgCl2 and 1 mM DTT.
10 μL of the ATP and substrate solution mix was added to a Coming (3574) 384-well, white, non-binding surface microtiter plate containing 0.5 μL of serially diluted test compounds prepared in DMSO. The reactions were started with the addition of 40 μL of the enzyme solution and monitored every 71 seconds for 240 min at kex 360/λem 485 in a Synergy H4 plate reader from BioTek at room temperature.
The initial linear portions of the net progress curves were fit according to a linear equation to yield the slope and percentage of inhibition (% inhibition) at each compound concentration. The net progress curves obtained during the entirety of reactions were also fit according to an ascending single-exponential equation (Eq. 1) to yield Vobs values at each compound concentration. Plots of % Inhibition versus degrader concentrations were fit according to a dose-response equation (Eq. 2) to generate IC50 and Hill slope values while plots of Vobs versus degrader concentration were fit according to Equation 3 (Eq. 3) to generate apparent Kinact values using the GraphPad PRISM software.
where F is the fluorescence intensity from the plate reader, V0 is a constant reflecting the relationship between the instrument readout and product concentration, t is time, e is Euler's number, and Vobs is the observed inactivation rate constant.
where % Inhibition is percentage of inhibition, IC50 is half maximal inhibitory concentration, [I] is the degraders concentration, and n is the Hill slope.
where kobs is the observed inactivation rate constant, Kinact is the apparent inactivation rate constant, K1 is the apparent inhibition constant, and [I] is the degrader concentration.
As to `C[C@@H]1CNc2c(sc3ccc4nc(-c5ccc(C(=O)NC6CCN(c7ccc8c(C9CCC(=O)NC9=O)nn(C)c8c7)CC6)cc5F)ccc4c23)C(=O)N1` (stereo partly drawn) [Ex 1, N-(1-(3-(2,6-dioxopiperidin-3-yl)-1-methyl-1H-indazol-6-yl)piperidin-4-yl)-3-fluoro-4-((R)-10-methyl-8-oxo-9,10,11,12-tetrahydro-8H-[1,4]diazepino[5′,6′:4,5]thieno[3,2-f]quinolin-3-yl)benzamide], the IC50 is below 150 nM. Consider `C[C@@H]1CNc2c(sc3ccc4nc(-c5ccc(C(=O)NCCN6CCN(c7ccc8c(C9CCC(=O)NC9=O)nn(C)c8c7)CC6)cc5F)ccc4c23)C(=O)N1` (stereo partly drawn) [Ex 2, N-(2-(4-(3-(2,6-dioxopiperidin-3-yl)-1-methyl-1H-indazol-6-yl)piperazin-1-yl)ethyl)-3-fluoro-4-((R)-10-methyl-8-oxo-9,10,11,12-tetrahydro-8H-[1,4]diazepino[5′,6′:4,5]thieno[3,2-f]quinolin-3-yl)benzamide], for which the IC50 is below 150 nM.

As to `C[C@@H]1CNc2c(sc3ccc4nc(-c5ccc(C(=O)N[C@H]6C[C@H](CN7CCN(c8ccc9c(C%10CCC(=O)NC%10=O)nn(C)c9c8)CC7)C6)cc5F)ccc4c23)C(=O)N1` (stereo partly drawn) [Ex 3, N-((trans)-3-((4-(3-(2,6-Dioxopiperidin-3-yl)-1-methyl-1H-indazol-6-yl)piperazin-1-yl)methyl)cyclobutyl)-3-fluoro-4-((R)-10-methyl-8-oxo-9,10,11,12-tetrahydro-8H-[1,4]diazepino[5′,6′:4,5]thieno[3,2-f]quinolin-3-yl)benzamide], the IC50 was below 150 nM. In the case of `C[C@@H]1CNc2c(sc3ccc4nc(-c5ccc(C(=O)N[C@H]6C[C@H](CCN7CCN(c8ccc9c(C%10CCC(=O)NC%10=O)nn(C)c9c8)CC7)C6)cc5F)ccc4c23)C(=O)N1` (stereo partly drawn) [Ex 4, N-(trans-3-(2-(4-(3-(2,6-Dioxopiperidin-3-yl)-1-methyl-1H-indazol-6-yl)piperazin-1-yl)ethyl)cyclobutyl)-3-fluoro-4-((R)-10-methyl-8-oxo-9,10,11,12-tetrahydro-8H-[1,4]diazepino[5′,6′:4,5]thieno[3,2-f]quinolin-3-yl)benzamide], the 50% inhibitory concentration (IC50) was below 150 nM. As to `C[C@@H]1CNc2c(sc3ccc4nc(-c5ccc(C(=O)N[C@H]6CC[C@H](CN7CCN(c8ccc9c(C%10CCC(=O)NC%10=O)nn(C)c9c8)CC7)CC6)cc5F)ccc4c23)C(=O)N1` (stereo partly drawn) [Ex 5, N-(trans-4-((4-(3-(2,6-dioxopiperidin-3-yl)-1-methyl-1H-indazol-6-yl)piperazin-1-yl)methyl)cyclohexyl)-3-fluoro-4-((R)-10-methyl-8-oxo-9,10,11,12-tetrahydro-8H-[1,4]diazepino[5′,6′:4,5]thieno[3,2-f]quinolin-3-yl)benzamide], the IC50 is below 150 nM.

As for `C[C@@H]1CNc2c(sc3ccc4nc(-c5ccc(C(=O)N[C@H]6CC[C@H](CCN7CCN(c8ccc9c(C%10CCC(=O)NC%10=O)nn(C)c9c8)CC7)CC6)cc5F)ccc4c23)C(=O)N1` (stereo partly drawn) [Ex 6, N-(trans-4-(2-(4-(3-(2,6-Dioxopiperidin-3-yl)-1-methyl-1H-indazol-6-yl)piperazin-1-yl)ethyl)cyclohexyl)-3-fluoro-4-((R)-10-methyl-8-oxo-9,10,11,12-tetrahydro-8H-[1,4]diazepino[5′,6′:4,5]thieno[3,2-f]quinolin-3-yl)benzamide], the IC50 is below 150 nM. The figure for `C[C@@H]1CNc2c(sc3ccc4nc(-c5ccc(C(=O)NC6CCN(c7ccc(C8CCC(=O)NC8=O)cc7)CC6)cc5F)ccc4c23)C(=O)N1` (stereo partly drawn) [Ex 7, N-(1-(4-(2,6-Dioxopiperidin-3-yl)phenyl)piperidin-4-yl)-3-fluoro-4-((R)-10-methyl-8-oxo-9,10,11,12-tetrahydro-8H-[1,4]diazepino[5′,6′:4,5]thieno[3,2-f]quinolin-3-yl)benzamide] is below 150 nM; for `C[C@@H]1CNc2c(sc3ccc4nc(-c5ccc(C(=O)NCCN6CCN(c7ccc(C8CCC(=O)NC8=O)cc7)CC6)cc5F)ccc4c23)C(=O)N1` (stereo partly drawn) [Ex 8, N-(2-(4-(4-(2,6-Dioxopiperidin-3-yl)phenyl)piperazin-1-yl)ethyl)-3-fluoro-4-((R)-10-methyl-8-oxo-9,10,11,12-tetrahydro-8H-[1,4]diazepino[5′,6′:4,5]thieno[3,2-f]quinolin-3-yl)benzamide] it is below 150 nM; for `C[C@@H]1CNc2c(sc3ccc4nc(-c5ccc(C(=O)N[C@H]6CC[C@H](CN7CCN(c8ccc(C9CCC(=O)NC9=O)cc8)CC7)CC6)cc5F)ccc4c23)C(=O)N1` (stereo partly drawn) [Ex 9, N-(trans-4-((4-(4-(2,6-Dioxopiperidin-3-yl)phenyl)piperazin-1-yl)methyl)cyclohexyl)-3-fluoro-4-((R)-10-methyl-8-oxo-9,10,11,12-tetrahydro-8H-[1,4]diazepino[5′,6′:4,5]thieno[3,2-f]quinolin-3-yl)benzamide] it is below 150 nM.

Turning to `C[C@@H]1CNc2c(sc3ccc4nc(-c5ccc(C(=O)N[C@H]6CC[C@H](CCN7CCN(c8ccc(C9CCC(=O)NC9=O)cc8)CC7)CC6)cc5F)ccc4c23)C(=O)N1` (stereo partly drawn) [Ex 10, N-((trans)-4-(2-(4-(4-(2,6-Dioxopiperidin-3-yl)phenyl)piperazin-1-yl)ethyl)cyclohexyl)-3-fluoro-4-((R)-10-methyl-8-oxo-9,10,11,12-tetrahydro-8H-[1,4]diazepino[5′,6′:4,5]thieno[3,2-f]quinolin-3-yl)benzamide], the IC50 lay within 151 to 500 nM. As to `C[C@@H]1CNc2c(sc3ccc4nc(-c5cccc(N6CCN(CCN7CCN(c8ccc(C9CCC(=O)NC9=O)cc8)CC7)CC6)c5)ccc4c23)C(=O)N1` (stereo partly drawn) [Ex 11, 3-(4-(4-(2-(4-(3-((R)-10-Methyl-8-oxo-9,10,11,12-tetrahydro-8H-[1,4]diazepino[5′,6′:4,5]thieno[3,2-f]quinolin-3-yl)phenyl)piperazin-1-yl)ethyl)piperazin-1-yl)phenyl)piperidine-2,6-dione], the IC50 was below 150 nM. For the molecule `C[C@@H]1CNc2c(sc3ccc4nc(-c5cccc(N6CCN(CCN7CCN(c8ccc9c(C%10CCC(=O)NC%10=O)nn(C)c9c8)CC7)CC6)c5)ccc4c23)C(=O)N1` (stereo partly drawn) [Ex 12, 3-(1-Methyl-6-(4-(2-(4-(3-((R)-10-methyl-8-oxo-9,10,11,12-tetrahydro-8H-[1,4]diazepino[5′,6′:4,5]thieno[3,2-f]quinolin-3-yl)phenyl)piperazin-1-yl)ethyl)piperazin-1-yl)-1H-indazol-3-yl)piperidine-2,6-dione], the IC50 is below 150 nM. Consider `C[C@@H]1CNc2c(sc3ccc4nc(-c5cccc(N6CCN(C(=O)C(=O)N7CCN(c8ccc(C9CCC(=O)NC9=O)cc8)CC7)CC6)c5)ccc4c23)C(=O)N1` (stereo partly drawn) [Ex 13, 3-(4-(4-(2-(4-(3-((R)-10-Methyl-8-oxo-9,10,11,12-tetrahydro-8H-[1,4]diazepino[5′,6′:4,5]thieno[3,2-f]quinolin-3-yl)phenyl)piperazin-1-yl)-2-oxoacetyl)piperazin-1-yl)phenyl)piperidine-2,6-dione], for which the IC50 was below 150 nM. Consider `C[C@@H]1CNc2c(sc3ccc4nc(-c5cccc(N6CCN(C(=O)C(=O)N7CCN(c8ccc9c(C%10CCC(=O)NC%10=O)nn(C)c9c8)CC7)CC6)c5)ccc4c23)C(=O)N1` (stereo partly drawn) [Ex 14, 3-(1-Methyl-6-(4-(2-(4-(3-((R)-10-methyl-8-oxo-9,10,11,12-tetrahydro-8H-[1,4]diazepino[5′,6′:4,5]thieno[3,2-f]quinolin-3-yl)phenyl)piperazin-1-yl)-2-oxoacetyl)piperazin-1-yl)-1H-indazol-3-yl)piperidine-2,6-dione], for which the IC50 is below 150 nM. With `C[C@@H]1CNc2c(sc3ccc4nc(-c5cccc(N6CC7CC(C6)N7CCN6CCN(c7ccc8c(C9CCC(=O)NC9=O)nn(C)c8c7)CC6)c5)ccc4c23)C(=O)N1` (stereo partly drawn) [Ex 15, 3-(1-Methyl-6-(4-(2-(3-(3-((R)-10-methyl-8-oxo-9,10,11,12-tetrahydro-8H-[1,4]diazepino[5′,6′:4,5]thieno[3,2-f]quinolin-3-yl)phenyl)-3,6-diazabicyclo[3.1.1]heptan-6-yl)ethyl)piperazin-1-yl)-1H-indazol-3-yl)piperidine-2,6-dione], the IC50 is below 150 nM. In the case of `C[C@@H]1COc2c(sc3ccc4nc(-c5cccc(N6CCN(CCN7CCN(c8ccc(C9CCC(=O)NC9=O)cc8)CC7)CC6)c5)ccc4c23)C(=O)N1` (stereo partly drawn) [Ex 16, 3-(4-(4-(2-(4-(3-((R)-10-Methyl-8-oxo-8,9,10,11-tetrahydro-[1,4]oxazepino[7′,6′:4,5]thieno[3,2-f]quinolin-3-yl)phenyl)piperazin-1-yl)ethyl)piperazin-1-yl)phenyl)piperidine-2,6-dione], the IC50 was below 150 nM.
